Patent US20260365991A1, “COMPOUNDS FOR STABILIZING PEPTIDES IN BIOLOGICAL SAMPLES” (Roche Diagnostics Operations, Inc., priority 2023, published 2026)

Columns and labels:
[1] = test system: gastrin-17; assay: Gastrin-17 stabilization by sulfone compounds in horse serum (Example 3); assay type: biochemical, human gastrin-17 (GAST_HUMAN) in horse serum; conditions: for ability to stabilize gastrin-17 in serum / stabilizing effect on gastrin-17 compared with DMSO: 5% [v/v], horse serum, room temperature, 5 h and 24 h
Procedure: Gastrin-17 (GAST_HUMAN(77-92)[Pyr-77]amid) was solved in horse serum with a concentration of 2.0 mg/ml and diluted to 0.22 mg/mL.
This solution was spiked respectively to reach a concentration of gastrin-17 of 0.1 mg/ml in (a) horse serum with added 5% [v/v]H2O; (b) horse serum with added 5% [v/v] DMSO (CAS: 67-68-5); (c) horse serum added 5% [v/v] Sulfolane (CAS: 126-33-0); d) horse serum with added 5% [v/v]trimethylene sulfone (CAS: 5687-92-3); e) horse serum with added 5% [v/v]1,1-dioxoisothiazolidine (CAS: 5908-62-3); f) horse serum with added 5% [v/v]1,4-butanesultone (CAS: 1633-83-6); g) horse serum with added 5% [v/v]tetrahydro-2H-thiopyran-4-ol 1,1-dioxide (CAS: 194152-05-1); h) horse serum with added 5% [v/v]2-methyltetrahydrothiophene 1,1-dioxide (CAS: 1003-46-9); i) horse serum with added 5% [v/v]ethylmethylsulfone (CAS: 594-43-4). The samples were then stored/incubated at room temperature. Samples were taken after 0 h, 5 h and 24 h. The further experiment was performed as described in Example 1.

[2] = cited from earlier work; for stability against oxidation compared with DMSO: Wasmus S and Vielstich W, Electrochimica Acta 1993
[3] = test system: gastrin-17; assay: Gastrin-17 stability in horse serum with 5% additive (Example 1, HPLC-MS); assay type: biochemical, human gastrin-17 (GAST_HUMAN) in horse serum; conditions: for protection ability on gastrin-17: room temperature, 0 h, 5 h, 23 h
Procedure: (§1) Gastrin-17 (GAST_HUMAN(77-92)[Pyr-77]amid) and MS Qual/Quant QC-Mix (Mat. No.: MSQC2, Sigma Aldrich, a peptide mix comprising peptides A, B and C as referred to herein) was solved in horse serum with a concentration of 2.0 mg/ml and diluted to 0.22 mg/mL.
(§2) This solution was spiked respectively to reach a final peptide concentration of 0.1 mg/ml in (a) horse serum with added 5% [v/v]H2O; (b) horse serum with added 5% [v/v] DMSO (CAS: 67-68-5); (c) horse serum with added 5% [v/v] Sulfolane (CAS: 126-33-0). The samples were stored at room temperature. Samples were taken at three times after spiking (0 h, 5 h and 23 h) and centrifuged with a Microcon-10 filter (Ultracel PL-10, Regenerated Cellulose 10,000 NMWL) for 10 min at 4 °C and 10,000 rpm. Afterwards the filtrate was separated by a liquid chromatography (HPLC) coupled with MS detector (QTOF Premier, Waters). The separation was done by a reverse phase liquid chromatography (Vydac 218TP C18, 5 μm, 2.1×150 mm, column temperature 50 °C) with a linear gradient to 100% of eluent B over 17 minutes. The eluent A was water with 0.025% [v/v]trifluoroacetic acid and eluent B was acetonitrile with 0.023% [v/v]trifluoroacetic acid. The quantification was done by using […]=1049.9 Da for Gastrin-17, [M+2H]^2+=671.8 Da for peptid A, [M+2H]^2+=751.4 Da for peptid B and [M+2H]^2+=802.9 Da for peptid C. Peptid A, B and C are exemplary peptides contained in the peptid-Mix MS Qual/Quant QC-Mix (Mat. No.: MSQC2, Sigma Aldrich). The peptide mix MS Qual/Quant QC-Mix (Mat. No.: MSQC2, Sigma Aldrich) contained peptides of a length of 4 to 26 amino acids.

[4] = test system: peptides A, B and C; assay: Concentration dependence of stabilization of peptides A, B and C in horse serum (Example 2); assay type: biochemical; conditions: for concentration dependence of stabilization, peptides A, B and C / stabilization of peptides A, B and C: 1.25%, 2.5% and 5% (v/v); for stabilization of peptides A, B and C: room temperature, 0 h and 5 h
Procedure: (§3) Gastrin-17 (GAST_HUMAN(77-92)[Pyr-77]amid) and MS Qual/Quant QC-Mix (Mat. No.: MSQC2, Sigma Aldrich; comprises peptides A, B and C) was solved in horse serum with a concentration of 2.0 mg/ml and diluted to 0.22 mg/mL.
(§4) This solution was spiked respectively to reach a concentration of 0.1 mg/ml in (a) horse serum with added 5% [v/v] DMSO (CAS: 67-68-5); (b) horse serum with added 5% [v/v] Sulfolane (CAS: 126-33-0); c) horse serum with added 2.5% [v/v] DMSO (CAS: 67-68-5); d) horse serum with added 2.5% [v/v] Sulfolane (CAS: 126-33-0); e) horse serum with added 1.25% [v/v] DMSO (CAS: 67-68-5); f) horse serum with added 1.25% [v/v] Sulfolane (CAS: 126-33-0); The samples were stored at room temperature. A sample was taken 0 h and 5 h after spiking. The further experiment was conducted as described in Example 1.

[5] = test system: peptides A, B and C; assay: Stability of peptides A, B and C in horse serum with 5% additive (Example 1, HPLC-MS); assay type: biochemical; conditions: for protection ability on different peptides (A, B, C): room temperature, 0 h, 5 h, 23 h
Procedure: as §1, §2

[6] = test system: gastrin-17; assay: Concentration dependence of gastrin-17 stabilization in horse serum (Example 2); assay type: biochemical, human gastrin-17 (GAST_HUMAN) in horse serum; conditions: for concentration dependence of stabilization, gastrin-17 / stabilization of gastrin-17: 1.25%, 2.5% and 5% (v/v); for stabilization of gastrin-17: room temperature, 0 h and 5 h
Procedure: as §3, §4

[7] = 5% [v/v], especially after longer incubation (23 h)

O=S1(=O)CCC1 [trimethylene sulfone]
ability to stabilize gastrin-17 in serum [1]: have the ability to stabilize peptides | stabilizing effect on gastrin-17 compared with DMSO [1]: superior to the DMSO stabilizing effect | stability against oxidation compared with DMSO [2]: more stable against oxidation than DMSO

CCS(C)(=O)=O [ethylmethylsulfone]
ability to stabilize gastrin-17 in serum [1]: have the ability to stabilize peptides | stabilizing effect on gastrin-17 compared with DMSO [1]: superior to the DMSO stabilizing effect | stability against oxidation compared with DMSO [2]: more stable against oxidation than DMSO

O=S1(=O)CCCC1 [Sulfolane]
ability to stabilize gastrin-17 in serum [1]: have the ability to stabilize peptides | stabilizing effect on gastrin-17 compared with DMSO [1]: superior to the DMSO stabilizing effect | protection of gastrin peptide over a longer period compared with DMSO ([1]; ca. 24 h, similar concentrations like DMSO, serum derived degradation): can protect the Gastrin Peptide better over a longer period | protection of gastrin-17 compared with DMSO [3, 7]: exceeds the DMSO protection outcome | protection ability on gastrin-17 ([3]; 5% [v/v]): both exhibit protection ability | signal stability over time (MassSpec peak area), gastrin-17 ([3]; FIG. 1, 5% [v/v] vs no additive and 5% DMSO): better signal stability over time | concentration dependence of stabilization, peptides A, B and C ([4]; 5 h): stabilization increased with the concentration | stabilization of peptides A, B and C [4]: stabilized each of the peptides | overall stabilization compared with DMSO, peptides A, B and C ([4]; 1.25-5% (v/v), 5 h): overall better peptide stabilization ability | protection of peptides A, B, C compared with DMSO [5, 7]: exceeds the DMSO protection outcome | protection ability on different peptides (A, B, C) ([5]; 5% [v/v]): both exhibit protection ability | signal stability over time (MassSpec peak area), peptides A, B and C ([5]; FIG. 2, 5% [v/v] vs no additive and 5% DMSO): better signal stability over time | concentration dependence of stabilization, gastrin-17 ([6]; 5 h): stabilization increased with the concentration | stabilization of gastrin-17 [6]: stabilized each of the peptides | overall stabilization compared with DMSO, gastrin-17 ([6]; 1.25-5% (v/v), 5 h): overall better peptide stabilization ability | stability improvement (MassSpec peak area) ([6]; FIG. 3, 5% vs 2.5% and 1.25% sulfolane or DMSO, legend says only "Peptide"): improves stability best | stability against oxidation compared with DMSO [2]: more stable against oxidation than DMSO | stability of Sulfolane compared with DMSO based upon oxidation ([2]; no experiment described at the place): more stable than DMSO based upon oxidation

C[S+](C)[O-] [DMSO, dimethylsulfoxid, reference compound]
protection ability on gastrin-17 ([3]; 5% [v/v]): both exhibit protection ability | concentration dependence of stabilization, peptides A, B and C ([4]; 5 h): stabilization increased with the concentration | stabilization of peptides A, B and C [4]: stabilized each of the peptides | protection ability on different peptides (A, B, C) ([5]; 5% [v/v]): both exhibit protection ability | concentration dependence of stabilization, gastrin-17 ([6]; 5 h): stabilization increased with the concentration | stabilization of gastrin-17 [6]: stabilized each of the peptides | oxidation instability ([2]; background statement): rather instable

O=S1(=O)CCC(O)CC1 [tetrahydro-2H-thiopyran-4-ol 1,1-dioxide]
ability to stabilize gastrin-17 in serum [1]: have the ability to stabilize peptides | stabilizing effect on gastrin-17 compared with DMSO [1]: superior to the DMSO stabilizing effect | stability against oxidation compared with DMSO [2]: more stable against oxidation than DMSO

O=S1(=O)CCCCO1 [1,4-butanesultone]
ability to stabilize gastrin-17 in serum [1]: have the ability to stabilize peptides | stabilizing effect on gastrin-17 compared with DMSO [1]: superior to the DMSO stabilizing effect | stability against oxidation compared with DMSO [2]: more stable against oxidation than DMSO

O=S1(=O)CCCN1 [1,1-dioxoisothiazolidine]
ability to stabilize gastrin-17 in serum [1]: have the ability to stabilize peptides | stability against oxidation compared with DMSO [2]: more stable against oxidation than DMSO

CC1CCCS1(=O)=O (stereo not drawn) [methyltetrahydrothiophene 1,1-dioxide, 2-methyltetrahydrothiophene 1,1-dioxide]
ability to stabilize gastrin-17 in serum [1]: have the ability to stabilize peptides | stabilizing effect on gastrin-17 compared with DMSO [1]: superior to the DMSO stabilizing effect | stability against oxidation compared with DMSO [2]: more stable against oxidation than DMSO
